Test results reported in paper PMC5988692, “AZ304, a novel dual BRAF inhibitor, exerts anti-tumour effects in colorectal cancer independently of BRAF genetic status” (British Journal of Cancer, 2018).
Read-outs that look alike come from different tables or passages of the source.

What was measured:
p38 = p38 (Homo sapiens, UniProt Q16539); test: 33P-ATP filter binding kinase assay (MBP phosphorylation); format: biochemical; conditions: ATP Km
Description: For RAF kinases, detailed assay information was described in ref.[18] Briefly, the kinase activity of BRAF WT, BRAF V600E, or CRAF was measured using an AlphaScreen assay (Perkin Elmer, MA) monitoring MEK1/2 phosphorylation at Ser217/221. For CDK2 and CDK4 kinases, activity was also measured by AlphaScreen, monitoring phosphorylation of biotin Rb peptide at Ser780. Similarly, MAP3K7, CSF1R and JAK2 kinase activity was measured by phosphorylation of their biotinylated substrates MKK6 kinase dead protein at Ser271/Thr275, or tyrosine phosphorylation of pEY or Tyk2 Tyr1054/1055 peptides, respectively. CSK, IGF1R, EGFR, FGFR1 and SRC kinase activity was measured using a sandwich ELISA detecting phosphorylated poly EAY peptide with a HRP conjugated phosphotyrosine antibody and TMB substrate, while p38 kinase activity was measured by monitoring phosphorylation of MBP protein with radiolabeled ^33P-ATP in a filter binding format. All assays were screened under respective ATP Km conditions and inhibitor IC50s were derived from either 5 (RAF kinases, CDK2, CDK4, MAP3K7, JAK2), 10 (CSK, IGF1R, EGFR, FGFR1, SRC) or 11 (p38, CSF1R) point compound dose response.

p-ERK in A375 cells = test: A375 p-ERK cellular assay; format: cell-based; conditions: Homo sapiens, A-375, 1.25 h; A375 (V600E mutant BRAF melanoma), 75 min; read-out: mean EC50, reduction of ERK phosphorylation (p-ERK)
Description: A375 cells were seeded into 96-well micro plates (Costar, Corning, and Lowell, MA) at […] in phenol red free DMEM (Invitrogen, Carlsbad, CA) supplemented with 10% foetal bovine serum. After 48 h, the cells were treated with DMSO or multiple concentrations of AZ304 and then returned to the incubator for 75 min. Medium were then aspirated and cells were fixed with a 6% formaldehyde solution for 20 min at room temperature. Cells were washed once with PBS containing 0.05% Triton X-100 (PBST) and 0.6% hydrogen peroxide added for 20 min at room temperature. After washing again in PBST, cells were blocked with 10% FBS/PBST solution for 1 h at room temperature. After washing, p-ERK monoclonal antibody was added and the plates were placed at 4 °C for overnight. […] Quantification of signal was determined at OD405 using a SpectraMax plate reader (Molecular Devices, Sunnyvale, CA). […] EC50 was calculated using XLift.
Cells were incubated with DMSO or AZ304 for 75 min and p-ERK levels were determined using a p-ERK antibody based ELISA. […] Cells were incubated with DMSO or AZ304 (±EGF) for 75 min and p-ERK levels were determined using a p-ERK antibody based ELISA. […]

p-ERK in SK-MEL-31 cells = test: SK-MEL-31 p-ERK cellular assay; format: cell-based; conditions: Homo sapiens, 1.25 h, read-out: EC50, reduction of p-ERK
[1] = system: RKO, HT-29, DiFi and Caco-2 cells; test: MTT assay with EGF stimulation; format: cell-based, human; conditions: four CRC cell lines, AZ304 + EGF (20 ng/ml) vs AZ304 alone, 72 h
Description: The proliferation assays in selected colorectal cancer cell lines were measured using a 3-(4,5-dimethyl thiazol-2-yl)-2,5-diphenyl tetrazolium bromide (MTT) assay. First of all, cultured cells were seeded into 96-well plates (2000–5000 cells per well). After incubation for 24 h, the cells were pretreated with DMSO or AZ304 for 1 h. Then the indicated doses of Cetuximab were added. Cells were incubated for a further 48 or 72 h. For EGF stimulating assay, cells were incubated in reduced serum medium overnight and then treated with AZ304 or AZ304 + EGF (20 ng/ml) for 72 h. Twenty microliter of MTT solution (5 mg/ml) was added to each well followed by 4 h incubation at 37 °C. The cell culture medium was removed and the cells were lysed in 200 μl dimethylsulphoxide (DMSO) and the results were measured using a microplate reader (Model 550, Bio-Rad Laboratories, Hercules, CA, USA).
Fig. 5 Anti-proliferative activity of AZ304 cannot be retained by EGF in CRC cell lines with different BRAF mutation status. a Two V600E mutant BRAF cell lines (RKO, HT-29) and two wild type BRAF cell lines (DiFi, Caco-2) were serum starved overnight and then treated with the indicated AZ304 or AZ304 + EGF for 72 h. […]

Chain of p38 (Q16539 whole entry): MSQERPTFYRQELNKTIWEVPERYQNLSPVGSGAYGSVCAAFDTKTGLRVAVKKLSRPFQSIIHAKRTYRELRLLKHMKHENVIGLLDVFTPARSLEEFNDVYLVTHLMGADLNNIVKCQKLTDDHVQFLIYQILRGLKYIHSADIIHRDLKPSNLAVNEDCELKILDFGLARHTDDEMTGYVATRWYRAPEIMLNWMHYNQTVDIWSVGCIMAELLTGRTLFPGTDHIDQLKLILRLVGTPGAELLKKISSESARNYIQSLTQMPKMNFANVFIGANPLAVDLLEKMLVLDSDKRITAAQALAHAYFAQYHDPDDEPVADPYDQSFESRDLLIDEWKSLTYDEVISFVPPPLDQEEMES

## COc1ccc2c(Nc3cc(NC(=O)c4cccc(C(C)(C)C#N)c4)ccc3C)ncnc2c1 [AZ304]
p38
  IC50: 6 nM
p-ERK in A375 cells
  EC50: 65 nM
p-ERK in SK-MEL-31 cells; SK-MEL-31 (wild type BRAF melanoma), 75 min, without EGF
  EC50: 60 nM
p-ERK in SK-MEL-31 cells; SK-MEL-31, 75 min, with EGF stimulation
  EC50: 52 nM
[1]
  change of anti-proliferative effects after combined treatment with EGF: no significant reduction of anti-proliferative effects
